According to PubChem BioAssay (NCI):
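These data come from cells grown in 96-well plates and exposed to compound for 48 hours at five concentrations. At the GI50, growth is halved. Definition used: TGI = concentration required for complete inhibition of growth.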

Experiments:
Test in all cases: inhibition of tumour cell growth, NCI panel, 48 h
[1] = system: HCT-116 colon
[2] = system: NCI-H226 lung
[3] = system: SF-268 CNS
[4] = system: MALME-3M melanoma
[5] = system: OVCAR-8 ovarian
[6] = system: ACHN renal
[7] = system: RXF 393 renal
[8] = system: OVCAR-3 ovarian
[9] = system: DU-145 prostate
[10] = system: HCT-15 colon
[11] = system: NCI-H460 lung
[12] = system: IGROV1 ovarian
[13] = system: SN12C renal
[14] = system: SNB-75 CNS
[15] = system: EKVX NSCLC
[16] = system: OVCAR-4 ovarian
[17] = system: SNB-19 CNS
[18] = system: HCC-2998 colon
[19] = system: SK-OV-3 ovarian
[20] = system: SW-620 colon
[21] = system: OVCAR-5 ovarian
[22] = system: MDA-MB-435
[23] = system: RPMI-8226 leukemia
[24] = system: CAKI-1 renal
[25] = system: 786-0 renal
[26] = system: UO-31 renal
[27] = system: COLO 205 colon
[28] = system: HOP-92 NSCLC
[29] = system: MDA-MB-231 breast
[30] = system: SK-MEL-28 melanoma
[31] = system: SF-539 CNS
[32] = system: T-47D breast
[33] = system: U251 CNS
[34] = system: NCI-H522 lung
[35] = system: BT-549 breast
[36] = system: A549 NSCLC
[37] = system: NCI/ADR-RES ovarian
[38] = system: SK-MEL-5 melanoma
[39] = system: SK-MEL-2 melanoma
[40] = system: HOP-62 NSCLC
[41] = system: CCRF-CEM leukemia
[42] = system: M14 melanoma
[43] = system: HT29 colon
[44] = system: TK-10 renal
[45] = system: SF-295 CNS
[46] = system: A498 renal
[47] = system: LOX IMVI melanoma
[48] = system: MCF7 breast
[49] = system: HS 578T breast
[50] = system: KM12 colon
[51] = system: PC-3 prostate
[52] = system: UACC-62 melanoma
[53] = system: UACC-257 melanoma

In the case of Clc1ccc2oc3c(NCCCn4ccnc4)c4ccccc4nc3c2c1, the GI50 [1] is reported as 4.48 µM, the TGI [1] is reported as 31.3 µM and the GI50 [2] is reported as 26.8 µM. For the same compound, the TGI [2] was greater than 100 µM, the GI50 [3] was 15.2 µM and the TGI [3] was greater than 100 µM. It also gave a GI50 [4] of 39.2 µM, a TGI [4] greater than 100 µM and a GI50 [5] of 12.7 µM. The TGI [5] was greater than 100 µM, the GI50 [6] was 4.84 µM and the TGI [6] was greater than 100 µM. It also gave a GI50 [7] of 4.65 µM, a TGI [7] of 23 µM and a GI50 [8] of 23.8 µM. For the same compound, the TGI [8] was greater than 100 µM, the GI50 [9] was 23.3 µM and the TGI [9] was greater than 100 µM. It also gave a GI50 [10] of 11.7 µM, a TGI [10] greater than 100 µM and a GI50 [11] of 5.26 µM. It also gave a TGI [11] of 21.4 µM, a GI50 [12] of 21.9 µM and a TGI [12] greater than 100 µM. It also gave a GI50 [13] of 9.75 µM, a TGI [13] greater than 100 µM and a GI50 [14] of 20.4 µM. It also gave a TGI [14] greater than 100 µM, a GI50 [15] of 51.7 µM and a TGI [15] greater than 100 µM. The GI50 [16] was 11.8 µM, the TGI [16] was 41.2 µM and the GI50 [17] was 27.8 µM. The TGI [17] was greater than 100 µM, the GI50 [18] was 12.7 µM and the TGI [18] was greater than 100 µM. It also gave a GI50 [19] greater than 100 µM, a TGI [19] greater than 100 µM and a GI50 [20] of 5.13 µM. The TGI [20] was greater than 100 µM, the GI50 [21] was 24.9 µM and the TGI [21] was greater than 100 µM. For the same compound, the GI50 [22] was 25.9 µM, the TGI [22] was greater than 100 µM and the GI50 [23] was 16.5 µM. The TGI [23] was 55.9 µM, the GI50 [24] was 11.4 µM and the TGI [24] was greater than 100 µM. It also gave a GI50 [25] of 16.3 µM, a TGI [25] greater than 100 µM and a GI50 [26] of 13.2 µM. For the same compound, the TGI [26] was 67.4 µM, the GI50 [27] was 10.9 µM and the TGI [27] was 37.7 µM. It also gave a GI50 [28] of 1.78 µM, a TGI [28] of 22.7 µM and a GI50 [29] of 17.5 µM. It also gave a TGI [29] greater than 100 µM, a GI50 [30] of 34.4 µM and a TGI [30] greater than 100 µM. The GI50 [31] was 12.8 µM, the TGI [31] was 28.2 µM and the GI50 [32] was 36 µM. For the same compound, the TGI [32] was greater than 100 µM, the GI50 [33] was 26.5 µM and the TGI [33] was greater than 100 µM. It also gave a GI50 [34] of 15 µM, a TGI [34] greater than 100 µM and a GI50 [35] of 16.9 µM. The TGI [35] was 51.4 µM, the GI50 [36] was 34.6 µM and the TGI [36] was greater than 100 µM. The GI50 [37] was 7.77 µM, the TGI [37] was greater than 100 µM and the GI50 [38] was 80.6 µM. For the same compound, the TGI [38] was greater than 100 µM, the GI50 [39] was greater than 100 µM and the TGI [39] was greater than 100 µM. For the same compound, the GI50 [40] was 16.6 µM, the TGI [40] was greater than 100 µM and the GI50 [41] was 8.66 µM. For the same compound, the TGI [41] was greater than 100 µM, the GI50 [42] was 28 µM and the TGI [42] was greater than 100 µM. The GI50 [43] was 6.14 µM, the TGI [43] was 23.6 µM and the GI50 [44] was 79 µM. It also gave a TGI [44] greater than 100 µM, a GI50 [45] of 17.9 µM and a TGI [45] of 66.6 µM. The GI50 [46] was greater than 100 µM, the TGI [46] was greater than 100 µM and the GI50 [47] was 10.4 µM. The TGI [47] was 39.1 µM, the GI50 [48] was 16.1 µM and the TGI [48] was greater than 100 µM. The GI50 [49] was 22.1 µM, the TGI [49] was greater than 100 µM and the GI50 [50] was 15.4 µM. The TGI [50] was greater than 100 µM, the GI50 [51] was 24.9 µM and the TGI [51] was greater than 100 µM. The GI50 [52] was 19.2 µM, the TGI [52] was 45.5 µM and the GI50 [53] was 39.9 µM. For the same compound, the TGI [53] was greater than 100 µM.
